Marks after values point to notes of the source that are not given here.
Tests used:
[1] = test system: northern corn rootworm (NCR); experiment: Sticky trap attraction in corn, phenylethanol analogues (Example 6); format: in vivo, Diabrotica barberi; settings: for Mean number of NCR per trap (± standard deviation) / Mean number (control subtracted) of NCR per trap: four replicates; for Mean number of NCR per trap (± standard deviation): 24 hour
Protocol: (§1) Test chemicals (purchased from Aldrich Chemical Co.; Milwaukee, Wis.) were applied by capillary micropipettes to cotton dental wicks that were attached to tops of 1.0 liter cylindrical paper cartons covered with TangleTrap™, Grand Rapids, Mich. The trapping techniques used were as previously described in Example 1. Unless otherwise indicated, all treatments were made at a dosage of 100 mg or 100 μL of attractant per trap. Control traps had untreated wicks. Four replicates of treated and untreated traps were positioned randomly 10 meters apart on top of 1 m high posts along the edges of 25-50 ha. fields of hybrid corn (Zea mays), infested with adult NCR, SCR, and WCR beetles. Several experiments detailed in the Tables were made in a 0.4 ha plot of sweet corn (Illini X-tra Sweet).
(§2) Attraction of Diabrotica species adults of the sticky traps was measured by the mean number of beetles caught after 1 day (ca. 24 hours) exposure. The significance of the treatments was determined by analysis of variance and the individual means were separated by Duncan's multiple range test (Statistical Package for the Social Sciences, Nie, et al., 2nd. ed. McGraw-Hill, New York (1975). The data was logarithmically transformed for statistical analysis. Means and standard deviations are presented for the untransformed data. Significance levels were set at P=0.05 for all statistical analyses.

[2] = test system: western corn rootworm (WCR); experiment: as above; format: in vivo, Diabrotica virgifera virgifera; settings: 100 mg per trap, four replicates, 24 hour; for Mean number of WCR per trap (± standard deviation), column WCW: Table 17
Protocol: as §1, §2

[3] = test system: southern corn rootworm (SCR) adults; experiment: Sticky trap attraction in corn, estragole analogues (Example 3); format: in vivo, Diabrotica undecimpunctata howardi; settings: 100 mg per trap, n = 4
Protocol: as §1, with “chemicals” for “chemicals (purchased from Aldrich Chemical Co.; Milwaukee, Wis.)”, “Cinnamyl alcohol, 4-methoxycinnamaldehyde, cinnamyl acetate, and 4-(4′methoxyphenyl)-3-butene-2-one which are solids at ambient temperature were prepared as standard w/v solutions in acetone prior to dosing the cotton wicks. All” for “Unless otherwise indicated, all”
as §2

[4] = test system: northern corn rootworm (NCR) adults; experiment: as above; format: in vivo, Diabrotica barberi; settings: 100 mg per trap, n = 4
Protocol: as §1, with “chemicals” for “chemicals (purchased from Aldrich Chemical Co.; Milwaukee, Wis.)”, “Cinnamyl alcohol, 4-methoxycinnamaldehyde, cinnamyl acetate, and 4-(4′methoxyphenyl)-3-butene-2-one which are solids at ambient temperature were prepared as standard w/v solutions in acetone prior to dosing the cotton wicks. All” for “Unless otherwise indicated, all”
as §2

[5] = test system: western corn rootworm (WCR) adults; experiment: as above; format: in vivo, Diabrotica virgifera virgifera; settings: 100 mg per trap, n = 4
Protocol: as §1, with “chemicals” for “chemicals (purchased from Aldrich Chemical Co.; Milwaukee, Wis.)”, “Cinnamyl alcohol, 4-methoxycinnamaldehyde, cinnamyl acetate, and 4-(4′methoxyphenyl)-3-butene-2-one which are solids at ambient temperature were prepared as standard w/v solutions in acetone prior to dosing the cotton wicks. All” for “Unless otherwise indicated, all”
as §2

WCR = experiment: Limit of response rating of squash blossom volatiles on sticky traps (Example 5); format: in vivo, Diabrotica virgifera virgifera; settings: 24 hour; four replicate traps; 0.01 mg to 200 mg
Protocol: (§3) Over 40 individual volatile chemicals have been isolated from Cucurbita maxima blossoms and circa 25 of these have been unequivocally identified (Andersen, J. F., J. Agric. Food Chem., 35:60-62 (1987): Andersen, J. F. and Metcalf, R. L., J. Chem. Ecol., 12:687-699 (1986)). The major odor components were evaluated as potential attractants for adult Diabrotica species using cylindrical sticky traps baited with dental cotton wicks (Metcalf, R. L., and Lampman, R. L., Paper submitted to J. Econ. Entomol., (1988)) containing from 0.01 mg to 200 mg of volatile compound.

SCR = experiment: as above; format: in vivo, Diabrotica undecimpunctata howardi; settings: 24 hour; four replicate traps; 0.01 mg to 200 mg
Protocol: as §3

NCR = experiment: as above; format: in vivo, Diabrotica barberi; settings: 24 hour; four replicate traps; 0.01 mg to 200 mg
Protocol: as §3

[6] = day 1 after single 100 mg dosage on cotton wick
[7] = day 2 after single 100 mg dosage on cotton wick
[8] = day 3 after single 100 mg dosage on cotton wick
[9] = day 4 after single 100 mg dosage on cotton wick
[10] = day 5 after single 100 mg dosage on cotton wick
[11] = day 6 after single 100 mg dosage on cotton wick
[12] = day 7 after single 100 mg dosage on cotton wick
[13] = day 8 after single 100 mg dosage on cotton wick
[14] = day 11 after single 100 mg dosage on cotton wick

SMILES: O=CC=Cc1ccccc1 [XII, cinnamaldehyde]
- Mean number of NCR per trap (± standard deviation) ([1]; Table 17, 100 mg per trap): 15.5 ± 3.8b per trap
- Mean number of WCR per trap (± standard deviation), column WCW [2]: 56.0 ± 34.6b per trap
- Mean number of SCR adults per sticky trap (±standard deviation) after 24 hours ([3]; August 4 second year): 135.5 ± 29.3^d per sticky trap
- Mean number of SCR per sticky trap after 24 hours ([3]; August 5 (Table 10)): 67.5 ± 23.1^d per sticky trap
- Mean number of SCR adults per sticky trap (±standard deviation) after 24 hours ([3]; August 5 first year): 431.2 ± 120.3^d per sticky trap
- Mean number of SCR (±standard deviation) per sticky trap after 24 hours ([3]; August 7 (Table 11)): 63.5 ± 25.7^c per sticky trap
- Mean number of SCR adults per sticky trap (±standard deviation) after 24 hours ([3]; September 11): 24.0 ± 10.5^c per sticky trap
- Mean number of NCR per sticky trap after 24 hours ([4]; August 5 (Table 10)): 1.2 ± 1.3^a per sticky trap
- Mean number of NCR (±standard deviation) per sticky trap after 24 hours ([4]; August 7 (Table 11)): 0.3 ± 0.5^a per sticky trap
- Mean number of WCR adults per sticky trap (±standard deviation) after 24 hours ([5]; August 4 second year): 32.2 ± 8.5^b per sticky trap
- Mean number of WCR per sticky trap after 24 hours ([5]; August 5 (Table 10)): 44.5 ± 25.5^d per sticky trap
- Mean number of WCR adults per sticky trap (±standard deviation) after 24 hours ([5]; August 5 first year): 4.0 ± 1.8^b per sticky trap
- Mean number of WCR (±standard deviation) per sticky trap after 24 hours ([5]; August 7 (Table 11)): 61.5 ± 15.6^b per sticky trap
- Mean number of WCR adults per sticky trap (±standard deviation) after 24 hours ([5]; September 11): 1.3 ± 1.3^a per sticky trap
- Attractant Rating WCR (by limit of response) (WCR): +3 (3-10)
- Attractant Rating SCR (by limit of response) (SCR): +4 (1-3)
- Attractant Rating NCR (by limit of response) (NCR): 0 (200)

SMILES: O=[N+]([O-])c1ccc(CCO)cc1 [4-nitrophenylethanol]
- Mean number of NCR per trap (± standard deviation) ([1]; Table 15, 100 mg per trap): 7.7 ± 2.7a per trap
- Mean number of WCR per trap (±standard deviation) ([2]; Table 15): 7.9 ± 5.1a per trap

SMILES: COc1cccc(CCO)c1 [3-methoxyphenylethanol]
- Mean number of NCR per trap (± standard deviation) ([1]; Table 16, 100 mg per trap): 7.2 ± 3.4a per trap
- Mean number of WCR per trap (±standard deviation) ([2]; Table 16): 3.7 ± 2.1a per trap

SMILES: Nc1ccc(CCO)cc1 [4-aminophenylethanol]
- Mean number of NCR per trap (± standard deviation) ([1]; Table 15, 100 mg per trap): 10.5 ± 2.1a per trap
- Mean number of WCR per trap (±standard deviation) ([2]; Table 15): 8.5 ± 3.4a per trap

SMILES: OCCc1ccc(F)cc1 [4-fluorophenylethanol]
- Mean number of NCR per trap (± standard deviation) ([1]; Table 15, 100 mg per trap): 38.0 ± 6.2b per trap
- Mean number of WCR per trap (±standard deviation) ([2]; Table 15): 14.0 ± 12.3a per trap

SMILES: COc1ccc(CCCO)cc1 [4-methoxyphenylpropanol]
- Mean number of NCR per trap (± standard deviation) ([1]; Table 17, 100 mg per trap): 15.5 ± 6.2b per trap
- Mean number of WCR per trap (± standard deviation), column WCW [2]: 3.2 ± 2.2a per trap

SMILES: OCCc1ccc(Cl)cc1 [4-chlorophenylethanol]
- Mean number of NCR per trap (± standard deviation) ([1]; Table 15, 100 mg per trap): 30.0 ± 7.4b per trap
- Mean number of WCR per trap (±standard deviation) ([2]; Table 15): 13.7 ± 3.9a per trap

SMILES: COc1ccccc1CCO [2-methoxyphenylethanol]
- Mean number of NCR per trap (± standard deviation) ([1]; Table 16, 100 mg per trap): 13.5 ± 9.3a per trap
- Mean number of WCR per trap (±standard deviation) ([2]; Table 16): 6.0 ± 5.1a per trap

SMILES: COc1ccc(CCO)cc1 [4-methoxyphenylethanol]
- Mean number of NCR per trap (± standard deviation) ([1]; Table 15, 100 mg per trap): 187.7 ± 62.5d* per trap
- Mean number of NCR per trap (± standard deviation) ([1]; Table 16, 100 mg per trap): 60.3 ± 26.8b* per trap
- Mean number of NCR per trap (± standard deviation) ([1]; Table 17, 100 mg per trap): 56.7 ± 7.5c per trap
- lowest level attractive to NCR ([1]; Table 18): ≤ 0.1 mg
- Mean number of NCR per trap (± standard deviation) ([1]; Table 18, 0.1 mg): 16.2 ± 1.2b per trap
- Mean number of NCR per trap (± standard deviation) ([1]; Table 18, 0.3 mg): 32.7 ± 9.4c per trap
- Mean number of NCR per trap (± standard deviation) ([1]; Table 18, 1 mg): 41.0 ± 23.4c per trap
- Mean number of NCR per trap (± standard deviation) ([1]; Table 18, 3 mg): 72.0 ± 10.8d per trap
- Mean number (control subtracted) of NCR per trap [1, 6]: 134.5 per trap
- Mean number (control subtracted) of NCR per trap [1, 7]: 231.8 per trap
- Mean number (control subtracted) of NCR per trap [1, 8]: 93.1 per trap
- Mean number (control subtracted) of NCR per trap [1, 9]: 51.5 per trap
- Mean number (control subtracted) of NCR per trap [1, 10]: 128.9 per trap
- Mean number (control subtracted) of NCR per trap [1, 11]: 49.2 per trap
- Mean number (control subtracted) of NCR per trap [1, 12]: 76.7 per trap
- Mean number (control subtracted) of NCR per trap [1, 13]: 99.0 per trap
- Mean number (control subtracted) of NCR per trap [1, 14]: 64.8 per trap
- Mean number of WCR per trap (±standard deviation) ([2]; Table 15): 5.7 ± 2.8a per trap
- Mean number of WCR per trap (±standard deviation) ([2]; Table 16): 3.5 ± 2.1a per trap
- Mean number of WCR per trap (± standard deviation), column WCW [2]: 6.0 ± 4.2a per trap

SMILES: OCCCc1ccccc1
- Mean number of NCR per trap (± standard deviation) ([1]; Table 17, 100 mg per trap): 36.2 ± 12.2c per trap
- Mean number (control subtracted) of NCR per trap [1, 6]: 76.5 per trap
- Mean number (control subtracted) of NCR per trap [1, 7]: 115.3 per trap
- Mean number (control subtracted) of NCR per trap [1, 8]: 38.8 per trap
- Mean number (control subtracted) of NCR per trap [1, 9]: 25.0 per trap
- Mean number (control subtracted) of NCR per trap [1, 10]: 41.8 per trap
- Mean number (control subtracted) of NCR per trap [1, 11]: 10.5 per trap
- Mean number (control subtracted) of NCR per trap [1, 12]: 10.7 per trap
- Mean number (control subtracted) of NCR per trap [1, 13]: 29.5 per trap
- Mean number (control subtracted) of NCR per trap [1, 14]: 4.5 per trap
- Mean number of WCR per trap (± standard deviation), column WCW [2]: 4.0 ± 2.9a per trap

SMILES: Cc1ccc(CCO)cc1 [4-methylphenylethanol]
- Mean number of NCR per trap (± standard deviation) ([1]; Table 15, 100 mg per trap): 89.2 ± 7.8c per trap
- Mean number of WCR per trap (±standard deviation) ([2]; Table 15): 12.2 ± 5.6a per trap
